Measurements published in ChEMBL document CHEMBL1201862, “PubChem BioAssay data set” (2004).
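A five-concentration, 48-hour dose response in 96-well plates underlies each endpoint, interpolated linearly between surrounding concentrations. Here, GI50 denotes the concentration required for 50% inhibition of growth.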 Activity calls are given as the source filed them. No stated cut-off is given here; in the data, active = GI50 up to about 1.1 µM and inactive = higher.

How the values were obtained:
Test in all cases: growth of human tumour cells (NCI), 48 h
CAKI-1 = test system: CAKI-1
K562 = test system: K562
NCI-H460 = test system: NCI-H460
SNB-19 = test system: SNB-19
UACC-257 = test system: UACC-257
Malme-3M = test system: Malme-3M
HL-60 = test system: HL-60
ACHN = test system: ACHN
IGROV-1 = test system: IGROV-1
NCI-H226 = test system: NCI-H226
KM-20L2 = test system: KM-20L2
UO-31 = test system: UO-31
COLO 205 = test system: COLO 205
SK-MEL-2 = test system: SK-MEL-2
EKVX = test system: EKVX
UACC-62 = test system: UACC-62

| SMILES | GI50 (CAKI-1) | GI50 (K562) | GI50 (NCI-H460) | GI50 (SNB-19) | GI50 (UACC-257) | GI50 (Malme-3M) | GI50 (HL-60) | GI50 (ACHN) | GI50 (IGROV-1) | GI50 (NCI-H226) | GI50 (KM-20L2) | GI50 (UO-31) | GI50 (COLO 205) | GI50 (SK-MEL-2) | GI50 (EKVX) | GI50 (UACC-62) |
| --- | --- | --- | --- | --- | --- | --- | --- | --- | --- | --- | --- | --- | --- | --- | --- | --- |
| COC(=O)Cc1cc(=O)n2c3ccccc3n(C)c2c1C#N | > 100 µM (inactive) | > 100 µM (inactive) | > 100 µM (inactive) | > 100 µM (inactive) | > 100 µM (inactive) | > 100 µM (inactive) | > 100 µM (inactive) | > 100 µM (inactive) | > 100 µM (inactive) | > 100 µM (inactive) | > 100 µM (inactive) | > 100 µM (inactive) | > 100 µM (inactive) | > 100 µM (inactive) | > 100 µM (inactive) |  |
| COC1OC(CO)C(O)C(NC(=O)N(C)N=O)C1O (stereo unspecified) | > 100 µM (inactive) | > 100 µM (inactive) | > 100 µM (inactive) | > 100 µM (inactive) |  | > 100 µM (inactive) | > 100 µM (inactive) | > 100 µM (inactive) | > 100 µM (inactive) | > 100 µM (inactive) | > 100 µM (inactive) | > 100 µM (inactive) | > 100 µM (inactive) | > 100 µM (inactive) | > 100 µM (inactive) |  |
| Cn1nc(-c2ccccc2)c(C(=O)/C=C/c2ccc(Cl)cc2)c(N2CCOCC2)c1=O | 0.652 µM (active) | 2.79 µM (inactive) | 2.64 µM (inactive) | 14.3 µM (inactive) |  |  | 1.85 µM (inactive) | 4.42 µM (inactive) | 4.22 µM (inactive) |  | 3.45 µM (inactive) | 9.71 µM (inactive) | 1.99 µM (inactive) |  | 8.49 µM (inactive) | 3.27 µM (inactive) |
| COc1ccc(C(=O)C(C(=O)C(=O)Nc2nc3ccc(OC)cc3s2)c2ccc(OC)cc2)cc1 (stereo unspecified) | > 100 µM (inactive) | > 100 µM (inactive) | > 100 µM (inactive) | > 100 µM (inactive) | 63.2 µM (inactive) | > 100 µM (inactive) | 75.2 µM (inactive) | > 100 µM (inactive) | > 100 µM (inactive) | > 100 µM (inactive) | > 100 µM (inactive) | 89.5 µM (inactive) | > 100 µM (inactive) | > 100 µM (inactive) | > 100 µM (inactive) | > 100 µM (inactive) |
| COc1ccc(C(=O)NCCN(C)C)c2nc3ccccc3nc12 |  | 2.05 µM (inactive) |  | 6.01 µM (inactive) | 3.56 µM (inactive) | 2.3 µM (inactive) |  | 2.79 µM (inactive) | 3.14 µM (inactive) | 3.48 µM (inactive) | 4.95 µM (inactive) |  | 3.46 µM (inactive) | 4.01 µM (inactive) | 6.41 µM (inactive) | 5.38 µM (inactive) |
| COc1ccc(N2C(=O)[C@@H](N=[N+]=[N-])[C@@H]2[C@H]2COC(C)(C)O2)cc1 | > 100 µM (inactive) | > 100 µM (inactive) | > 100 µM (inactive) | > 100 µM (inactive) | > 100 µM (inactive) | > 100 µM (inactive) | > 100 µM (inactive) | > 100 µM (inactive) | > 100 µM (inactive) | > 100 µM (inactive) | > 100 µM (inactive) | > 100 µM (inactive) | > 100 µM (inactive) | > 100 µM (inactive) | > 100 µM (inactive) | 75 µM (inactive) |
| CN(C)CCNC(=O)c1cccc2nc3cc(Cl)ccc3nc12 | 4.59 µM (inactive) | 1.18 µM (inactive) |  | 3.4 µM (inactive) | 2.82 µM (inactive) | 1.85 µM (inactive) | 3.32 µM (inactive) | 1.02 µM (active) | 5.25 µM (inactive) | 1.64 µM (inactive) | 2.81 µM (inactive) | 4.26 µM (inactive) | 1.86 µM (inactive) | 2.47 µM (inactive) | 4.25 µM (inactive) | 3.69 µM (inactive) |
| c1ccc2cc3[s+]snc3cc2c1 | > 100 µM (inactive) | > 100 µM (inactive) | > 100 µM (inactive) | > 100 µM (inactive) | > 100 µM (inactive) | > 100 µM (inactive) | > 100 µM (inactive) | > 100 µM (inactive) | > 100 µM (inactive) | > 100 µM (inactive) | > 100 µM (inactive) | > 100 µM (inactive) | > 100 µM (inactive) | > 100 µM (inactive) | > 100 µM (inactive) | > 100 µM (inactive) |
| N#CC(C(=O)CCCC(=O)Nc1ccc(Cl)cc1Cl)c1ccc(Cl)cc1 (stereo unspecified) | > 100 µM (inactive) | > 100 µM (inactive) | > 100 µM (inactive) | > 100 µM (inactive) | > 100 µM (inactive) | > 100 µM (inactive) | > 100 µM (inactive) | > 100 µM (inactive) | > 100 µM (inactive) | > 100 µM (inactive) | > 100 µM (inactive) | > 100 µM (inactive) | > 100 µM (inactive) | > 100 µM (inactive) |  | > 100 µM (inactive) |
